Experimental data: US9708314B2, “Heterocyclic amide compound” (NISSAN CHEMICAL INDUSTRIES, LTD., priority 2013, dated 2017)

Assays:
Format in all cases: in vivo
Settings in all cases: application to foliage, 320 g/ha
Abutilon theophrasti = experiment: Test Example 4: herbicidal effect by application to foliage (diluvial soil, plastic box)
Text: (§1) 5 Herbicidal ratio of 90% or more (almost completely withered) 4 Herbicidal ratio of 70% or more and less than 90% 3 Herbicidal ratio of 40% or more and less than 70% 2 Herbicidal ratio of 20% or more and less than 40% 1 Herbicidal ratio of 5% or more and less than 20% 0 Herbicidal ratio of 5% or less (almost no effect) [Test Example 4] Herbicidal Effect Test by Application to Foliage Sterilized diluvial soil was placed in a plastic box having a length of 21 cm, a width of 13 cm, and a depth of 7 cm. Each of the seeds of Digitaria ciliaris, Setaria viridis, Echinochloa crus-galli var. crus-galli, Avena fatua, Alopecurus myosuroides, Lolium multiflorum Lam., Apera spica-venti., Abutilon theophrasti, Amaranthus retroflexus, Chenopodium album, Stellaria media, Galium spurium, Veronica persica, Zea mays, Glycine max, Oryza sativa, Triticum aestivum, Beta vulgaris ssp. vulgaris, and Brassica campestris L. was sowed in a spot-like manner and was covered with the soil of about 1.5 cm thick. Thereafter, the plants were grown in the greenhouse of 25° C. to 30° C. After the plants were grown for 14 days, the emulsion agent containing the compound of the present invention prepared in accordance with Formulation Example 2 was diluted with water so as to be a predetermined herbicide amount and the diluted compound was uniformly applied to a stem and leaf part with a small-size spray. Three weeks after the herbicide application, effects on each plant were investigated in accordance with the criteria of Test Example 1. A: Echinochloa oryzicola Vasing., B: Scirpus juncoides, C: Monochoria vaginalis, D: Leptochloa chinensis, E: Cyperus difformis, F: Digitaria ciliaris, G: Setaria viridis, H: Echinochloa crus-galli var. crus-galli, I: Avena fatua, J: Alopecurus myosuroides, K: Lolium multiflorum Lam., L: Apera spica-venti., M: Abutilon theophrasti, N: Amaranthus retroflexus, O: Chenopodium album, P: Stellaria media, Q: Galium spurium, R: Veronica persica, a: transplanted Oryza sativa, b: directly sowed Oryza sativa, c: Zea mays, d: Glycine max, e: Triticum aestivum, f: Beta vulgaris ssp. vulgaris, and g: Brassica campestris L. The application herbicide amount (g/ha) means an amount that a concentration is adjusted so that, when an application amount is converted into per hectare (1 ha), the herbicide is applied by the number of grams (g) of the described value.

Alopecurus myosuroides = experiment: as above
Text: as §1

Amaranthus retroflexus = experiment: as above
Text: as §1

Apera spica-venti. = experiment: as above
Text: as §1

Avena fatua = experiment: as above
Text: as §1

Chenopodium album = experiment: as above
Text: as §1

Digitaria ciliaris = experiment: as above
Text: as §1

[1] = system: Echinochloa crus-galli var. crus-galli; experiment: as above
Text: as §1

Galium spurium = experiment: as above
Text: as §1

Lolium multiflorum Lam. = experiment: as above
Text: as §1

Setaria viridis = experiment: as above
Text: as §1

Stellaria media = experiment: as above
Text: as §1

Veronica persica = experiment: as above
Text: as §1

[2] = system: Beta vulgaris ssp. vulgaris; experiment: Test Example 4: effect on crop by application to foliage (diluvial soil, plastic box)
Text: as §1

Brassica campestris L. = experiment: as above
Text: as §1

Glycine max = experiment: as above
Text: as §1

Triticum aestivum = experiment: as above
Text: as §1

Zea mays = experiment: as above
Text: as §1

[3] = system: directly sowed Oryza sativa; experiment: as above
Text: as §1

| Compound | herbicidal effect, M (Abutilon theophrasti) (Abutilon theophrasti) | herbicidal effect, J (Alopecurus myosuroides) (Alopecurus myosuroides) | herbicidal effect, N (Amaranthus retroflexus) (Amaranthus retroflexus) | herbicidal effect, L (Apera spica-venti.) (Apera spica-venti.) | herbicidal effect, I (Avena fatua) (Avena fatua) | herbicidal effect, O (Chenopodium album) (Chenopodium album) | herbicidal effect, F (Digitaria ciliaris) (Digitaria ciliaris) | herbicidal effect, H (Echinochloa crus-galli var. crus-galli) [1] | herbicidal effect, Q (Galium spurium) (Galium spurium) | herbicidal effect, K (Lolium multiflorum Lam.) (Lolium multiflorum Lam.) | herbicidal effect, G (Setaria viridis) (Setaria viridis) | herbicidal effect, P (Stellaria media) (Stellaria media) | herbicidal effect, R (Veronica persica) (Veronica persica) | effect on crop, f (Beta vulgaris ssp. vulgaris) [2] | effect on crop, g (Brassica campestris L.) (Brassica campestris L.) | effect on crop, c (Glycine max) (Glycine max) | effect on crop, e (Triticum aestivum) (Triticum aestivum) | effect on crop, b (Zea mays) (Zea mays) | effect on crop, d (directly sowed Oryza sativa) [3] |
| --- | --- | --- | --- | --- | --- | --- | --- | --- | --- | --- | --- | --- | --- | --- | --- | --- | --- | --- | --- |
| Cc1nnc(NC(=O)c2ccc(C(F)(F)F)n3c(=O)n(C(C)C)nc23)o1 [6-005] | 4 (Herbicidal ratio of 70% or more and less than 90%) | 1 (Herbicidal ratio of 5% or more and less than 20%) | 3 (Herbicidal ratio of 40% or more and less than 70%) | 1 (Herbicidal ratio of 5% or more and less than 20%) | 0 (Herbicidal ratio of 5% or less (almost no effect)) | 3 (Herbicidal ratio of 40% or more and less than 70%) | 3 (Herbicidal ratio of 40% or more and less than 70%) | 3 (Herbicidal ratio of 40% or more and less than 70%) | 1 (Herbicidal ratio of 5% or more and less than 20%) | 1 (Herbicidal ratio of 5% or more and less than 20%) | 1 (Herbicidal ratio of 5% or more and less than 20%) | 1 (Herbicidal ratio of 5% or more and less than 20%) | 1 (Herbicidal ratio of 5% or more and less than 20%) | 1 (Herbicidal ratio of 5% or more and less than 20%) | 0 (Herbicidal ratio of 5% or less (almost no effect)) | 0 (Herbicidal ratio of 5% or less (almost no effect)) | 0 (Herbicidal ratio of 5% or less (almost no effect)) | 0 (Herbicidal ratio of 5% or less (almost no effect)) | 0 (Herbicidal ratio of 5% or less (almost no effect)) |
| Cc1nnc(NC(=O)c2ccc(C(F)(F)F)n3c(=O)n(Cc4ccccc4)nc23)o1 [6-006] | 1 (Herbicidal ratio of 5% or more and less than 20%) | 0 (Herbicidal ratio of 5% or less (almost no effect)) | 0 (Herbicidal ratio of 5% or less (almost no effect)) | 0 (Herbicidal ratio of 5% or less (almost no effect)) | 0 (Herbicidal ratio of 5% or less (almost no effect)) | 3 (Herbicidal ratio of 40% or more and less than 70%) | 0 (Herbicidal ratio of 5% or less (almost no effect)) | 0 (Herbicidal ratio of 5% or less (almost no effect)) | 0 (Herbicidal ratio of 5% or less (almost no effect)) | 0 (Herbicidal ratio of 5% or less (almost no effect)) | 0 (Herbicidal ratio of 5% or less (almost no effect)) | 1 (Herbicidal ratio of 5% or more and less than 20%) | 1 (Herbicidal ratio of 5% or more and less than 20%) | 0 (Herbicidal ratio of 5% or less (almost no effect)) | 0 (Herbicidal ratio of 5% or less (almost no effect)) | 0 (Herbicidal ratio of 5% or less (almost no effect)) | 0 (Herbicidal ratio of 5% or less (almost no effect)) | 0 (Herbicidal ratio of 5% or less (almost no effect)) | 0 (Herbicidal ratio of 5% or less (almost no effect)) |
| CCn1nc2c(C(=O)Nc3ncnn3C)ccc(C(F)(F)F)n2c1=O [6-007] | 2 (Herbicidal ratio of 20% or more and less than 40%) | 0 (Herbicidal ratio of 5% or less (almost no effect)) | 3 (Herbicidal ratio of 40% or more and less than 70%) | 0 (Herbicidal ratio of 5% or less (almost no effect)) | 0 (Herbicidal ratio of 5% or less (almost no effect)) | 3 (Herbicidal ratio of 40% or more and less than 70%) | 0 (Herbicidal ratio of 5% or less (almost no effect)) | 0 (Herbicidal ratio of 5% or less (almost no effect)) | 0 (Herbicidal ratio of 5% or less (almost no effect)) | 0 (Herbicidal ratio of 5% or less (almost no effect)) | 0 (Herbicidal ratio of 5% or less (almost no effect)) | 0 (Herbicidal ratio of 5% or less (almost no effect)) | 0 (Herbicidal ratio of 5% or less (almost no effect)) | 3 (Herbicidal ratio of 40% or more and less than 70%) | 0 (Herbicidal ratio of 5% or less (almost no effect)) | 0 (Herbicidal ratio of 5% or less (almost no effect)) | 0 (Herbicidal ratio of 5% or less (almost no effect)) | 0 (Herbicidal ratio of 5% or less (almost no effect)) | 2 (Herbicidal ratio of 20% or more and less than 40%) |
| CCn1nc2c(C(=O)Nc3nonc3C)ccc(C(F)(F)F)n2c1=O [6-008] | 1 (Herbicidal ratio of 5% or more and less than 20%) | 0 (Herbicidal ratio of 5% or less (almost no effect)) | 0 (Herbicidal ratio of 5% or less (almost no effect)) | 0 (Herbicidal ratio of 5% or less (almost no effect)) | 0 (Herbicidal ratio of 5% or less (almost no effect)) | 3 (Herbicidal ratio of 40% or more and less than 70%) | 0 (Herbicidal ratio of 5% or less (almost no effect)) | 0 (Herbicidal ratio of 5% or less (almost no effect)) | 0 (Herbicidal ratio of 5% or less (almost no effect)) | 0 (Herbicidal ratio of 5% or less (almost no effect)) | 0 (Herbicidal ratio of 5% or less (almost no effect)) | 1 (Herbicidal ratio of 5% or more and less than 20%) | 0 (Herbicidal ratio of 5% or less (almost no effect)) | 1 (Herbicidal ratio of 5% or more and less than 20%) | 0 (Herbicidal ratio of 5% or less (almost no effect)) | 0 (Herbicidal ratio of 5% or less (almost no effect)) | 0 (Herbicidal ratio of 5% or less (almost no effect)) | 0 (Herbicidal ratio of 5% or less (almost no effect)) | 1 (Herbicidal ratio of 5% or more and less than 20%) |
